biological target: T1, protein farnesyltransferase (Rattus norvegicus, UniProt Q02293+Q04631); test: in vitro inhibition of protein farnesyltransferase (scintillation proximity assay, biotin-K Ras B fragment); type: biochemical; settings: at 1 × 10^-5 M
T1 construct: Rat brain protein farnesyltransferase activity is measured; from tissue; host or cells: rat brain; purified according to Reiss et al., Cell 62:81-88 (1990), steps one through three
Text: The ability of the compounds of the invention to inhibit protein farnesyltransferase or protein geranylgeranyltransferase can be measured according to the method of Moores, et al., J. Biol. Chem. 266: 14603 (1991) or the method of Vogt, et al., J. Biol. Chem. 270:660-664 (1995). In addition, procedures for determination of the inhibition of farnesylation of the oncogene protein Ras are described by Goldstein, et al., J. Biol. Chem., 266:15575-15578 (1991) and by Singh in U.S. Pat. No. 5,245,061.
In addition, in vitro inhibition of protein farnesyltransferase may be measured by the following procedure. Rat brain protein farnesyltransferase activity is measured using an Amersham Life Science commercial scintillation proximity assay kit and substituting a biotin-K Ras B fragment (biotin-[…]CO2 H), 0.1 mM final concentration, for the biotin-lamin substrate provided by Amersham. The enzyme is purified according to Reiss, Y., et al., Cell, 62: 81-88 (1990), utilizing steps one through three.
The % inhibition of protein farnesyltransferase was determined for representative compounds of the invention.

Row | Structure (SMILES) | inhibition at 10 µM [%]
1 | CCn1cc(NCc2ccc(C(=O)N[C@@H](CCSC)C(=O)O)c(-c3ccccc3)c2)c(=O)n1CC [Example 364] | 69
2 | CSCC[C@H](NC(=O)c1ccc(CNCCN2CCOCC2)cc1-c1ccccc1)C(=O)O [Example 365] | 97
3 | CSCC[C@H](NC(=O)c1ccc(CNCCN2CCCCC2)cc1-c1ccccc1)C(=O)O [Example 366] | 83
4 | CSCC[C@H](NC(=O)c1ccc(CNCCc2cccs2)cc1-c1ccccc1)C(=O)O [Example 369] | 87
5 | CSCC[C@H](NC(=O)c1ccc(CNc2cc[nH]n2)cc1-c1ccccc1)C(=O)O [Example 370] | 86

Results, then the molecule that gave them:

Row | inhibition at 10 µM [%] | Structure (SMILES)
6 | 66 | CSCC[C@H](NC(=O)c1ccc(CNc2nnc(C)s2)cc1-c1ccccc1)C(=O)O [Example 371]
7 | 69 | CSCC[C@H](NC(=O)c1ccc(CNc2cc(C)on2)cc1-c1ccccc1)C(=O)O [Example 372]
8 | 76 | CSCC[C@H](NC(=O)c1ccc(CNc2cc(C)ns2)cc1-c1ccccc1)C(=O)O [Example 373]
9 | 61 | CSCC[C@H](NC(=O)c1ccc(CNc2nccs2)cc1-c1ccccc1)C(=O)O [Example 374]
10 | 71 | CSCC[C@H](NC(=O)c1ccc(CNCCCN2CCOCC2)cc1-c1ccccc1)C(=O)O [Example 377]
11 | 79 | CSCC[C@H](NC(=O)c1ccc(CNc2cc(C(C)(C)C)[nH]n2)cc1-c1ccccc1)C(=O)O [Example 381]

same assay, conditions: at 1 × 10^-6 M

Row | Structure (SMILES) | % inhibition of farnesyltransferase [%]
12 | CSCC[C@H](NC(=O)c1ccc(CN(C(C)C)C2(Cc3ccccc3)CCCC2)cc1-c1ccccc1C)C(=O)O [Example 343] | 72
13 | CSCC[C@H](NC(=O)c1ccc(CN(C(C)C)C2(CC3CCCCC3)CCCC2)cc1-c1ccccc1C)C(=O)O [Example 344] | 95
14 | Cc1ccccc1-c1cc(CN(C2CC2)C2(Cc3ccccc3)CCCC2)ccc1C(=O)N[C@@H](CCS(C)(=O)=O)C(=O)O [Example 345] | 91
15 | Cc1ccccc1-c1cc(CN(C2CC2)C2(CC3CCCCC3)CCCC2)ccc1C(=O)N[C@@H](CCS(C)(=O)=O)C(=O)O [Example 346] | 98
16 | CSCC[C@H](NC(=O)c1ccc(CN2C(=O)OC[C@@H]2CC2CCCCC2)cc1-c1ccccc1C)C(=O)O [Example 349] | 99
17 | CSCC[C@H](NC(=O)c1ccc(CCc2ccccc2-c2ccccc2)cc1-c1ccccc1C)C(=O)[O-].[Li+] [Example 452] | 96
18 | CSCC[C@H](NC(=O)c1ccc(C=Cc2ccccc2Oc2ccccc2)cc1-c1ccccc1C)C(=O)[O-].[Li+] [Example 453] | 90
19 | CSCC[C@H](NC(=O)c1ccc(C=Cc2ccccc2Cc2ccccc2)cc1-c1ccccc1C)C(=O)[O-].[Li+] [Example 457] | 92
20 | CSCC[C@H](NC(=O)c1ccc(CCc2cccc3ccccc23)cc1-c1ccccc1C)C(=O)[O-].[Li+] [Example 467] | 97
21 | CSCC[C@H](NC(=O)c1ccc(CCCc2ccc3ccccc3c2)cc1-c1ccccc1C)C(=O)[O-].[Li+] [Example 470] | 95

More lines, now with the values ahead:

Row | % inhibition of farnesyltransferase [%] | Structure (SMILES)
22 | 98 | CSCC[C@H](NC(=O)c1ccc(COCCC23CC4CC(CC(C4)C2)C3)cc1-c1ccccc1C)C(=O)O [Example 404]
23 | 98 | CSCC[C@H](NC(=O)c1ccc(COCCCC2CCCCC2)cc1-c1ccccc1C)C(=O)O [Example 405]
24 | 96 | CSCC[C@H](NC(=O)c1ccc(COCc2ccc(CN(C)C)o2)cc1-c1ccccc1C)C(=O)O [Example 435]
25 | 81 | Cc1ccccc1-c1cc(CCc2ccccc2Oc2ccccc2)ccc1C(=O)N[C@@H](CC[S+](C)[O-])C(=O)O (stereo partly shown) [Example 456]
26 | 88 | Cc1ccccc1-c1cc(CCc2cccc(Oc3ccccc3)c2)ccc1C(=O)N[C@@H](CC[S+](C)[O-])C(=O)O (stereo partly shown) [Example 460]
27 | 91 | Cc1ccccc1-c1cc(CCc2ccc(Oc3ccccc3)cc2)ccc1C(=O)N[C@@H](CC[S+](C)[O-])C(=O)O (stereo partly shown) [Example 463]
28 | 92 | CSCC[C@H](NC(=O)c1ccc(/C=C/c2ccc3ccccc3c2)cc1-c1ccccc1C)C(=O)O [Example 465]
29 | 93 | CSCC[C@H](NC(=O)c1ccc(/C=C/c2cccc3ccccc23)cc1-c1ccccc1C)C(=O)O [Example 466]
30 | 96 | CSCC[C@H](NC(=O)c1ccc(CCc2ccc3ccccc3c2)cc1-c1ccccc1C)C(=O)O [Example 468]
31 | 92 | CSCC[C@H](NC(=O)c1ccc(C=CCc2ccccc2)cc1-c1ccccc1C)C(=O)O [Example 469]
32 | 94 | CSCC[C@H](NC(=O)c1ccc(/C=C/CC2CCCCC2)cc1-c1ccccc1C)C(=O)O [Example 471]
33 | 97 | CSCC[C@H](NC(=O)c1ccc(/C=C/CCc2ccccc2)cc1-c1ccccc1C)C(=O)O [Example 472]
34 | 96 | CSCC[C@H](NC(=O)c1ccc(CCCC(=O)c2ccc3ccccc3c2)cc1-c1ccccc1C)C(=O)O [Example 473]
35 | 92 | CSCC[C@H](NC(=O)c1ccc(/C=C/CC(O)c2ccc3ccccc3c2)cc1-c1ccccc1C)C(=O)O (stereo partly shown) [Example 474]

same assay, conditions: at 1 × 10^-6 M; read-out: % inhibition of farnesyltransferase

Row | Structure (SMILES) | inhibition at 1 µM [%]
36 | CCSC[C@H](CC1CCCCC1)NCc1ccc(C(=O)N[C@@H](CCSC)C(=O)O)c(-c2ccccc2C)c1 [Example 403, [4-(1-ethylthio-3-cyclohexylprop-2-ylaminomethyl)-2-(2-methylphenyl)benzoyl]methionine] | 99
37 | CSCC[C@H](NC(=O)c1ccc(CN(Cc2ccccc2)c2ccccc2)cc1-c1ccccc1C)C(=O)O [Example 406, 4-(N-benzyl-N-phenyl)-aminomethyl-2-(2-methylphenyl)benzoylmethionine] | 95

same assay, conditions: at 1 × 10^-7 M

Row | Structure (SMILES) | % inhibition of farnesyltransferase [%]
38 | CSCC[C@H](NC(=O)c1ccc(COCc2ccc(Br)o2)cc1-c1ccccc1C)C(=O)[O-].[Li+] [Example 434] | 93
39 | CSCC[C@H](NC(=O)c1ccc(COCc2ccc(-c3cccc(F)c3)o2)cc1-c1ccccc1C)C(=O)[O-].[Li+] [Example 436] | 89
40 | CSCC[C@H](NC(=O)c1ccc(COCc2ccc(-c3ccccc3F)o2)cc1-c1ccccc1C)C(=O)[O-].[Li+] [Example 437] | 89
41 | CSCC[C@H](NC(=O)c1ccc(COCc2ccc(-c3ccccc3C(F)(F)F)o2)cc1-c1ccccc1C)C(=O)[O-].[Li+] [Example 438] | 90
42 | CSCC[C@H](NC(=O)c1ccc(COCc2ccc(-c3cccc([N+](=O)[O-])c3)o2)cc1-c1ccccc1C)C(=O)[O-].[Li+] [Example 440] | 92
43 | CSCC[C@H](NC(=O)c1ccc(COCc2ccc(-c3cccc(C(F)(F)F)c3)o2)cc1-c1ccccc1C)C(=O)[O-].[Li+] [Example 441] | 91
44 | COc1cccc(-c2ccc(COCc3ccc(C(=O)N[C@@H](CCSC)C(=O)[O-])c(-c4ccccc4C)c3)o2)c1.[Li+] [Example 442] | 88
45 | CSCC[C@H](NC(=O)c1ccc(COCc2ccc(-c3ccc(Cl)cc3)o2)cc1-c1ccccc1C)C(=O)O [Example 443] | 97
46 | CSCC[C@H](NC(=O)c1ccc(COCc2ccc(-c3ccc(C(F)(F)F)cc3)o2)cc1-c1ccccc1C)C(=O)[O-].[Li+] [Example 445] | 94
47 | COc1ccc(-c2ccc(COCc3ccc(C(=O)N[C@@H](CCSC)C(=O)[O-])c(-c4ccccc4C)c3)o2)cc1.[Li+] [Example 446] | 91
48 | CSCC[C@H](NC(=O)c1ccc(COCc2ccc(-c3ccc(SC)cc3)o2)cc1-c1ccccc1C)C(=O)[O-].[Li+] [Example 447] | 91
49 | CSCC[C@H](NC(=O)c1ccc(COCc2ccc(-c3ccc(C=O)cc3)o2)cc1-c1ccccc1C)C(=O)[O-].[Li+] [Example 448] | 92
50 | CSCC[C@H](NC(=O)c1ccc(COCc2ccc(-c3ccc(C(C)=O)cc3)o2)cc1-c1ccccc1C)C(=O)[O-].[Li+] [Example 449] | 91
51 | CSCC[C@H](NC(=O)c1ccc(CCc2ccccc2Oc2ccccc2)cc1-c1ccccc1C)C(=O)[O-].[Li+] [Example 455] | 83
52 | CSCC[C@H](NC(=O)c1ccc(CCc2ccccc2Cc2ccccc2)cc1-c1ccccc1C)C(=O)O [Example 458] | 87
53 | CSCC[C@H](NC(=O)c1ccc(CCc2cccc(Oc3ccccc3)c2)cc1-c1ccccc1C)C(=O)[O-].[Li+] [Example 459] | 92
54 | CSCC[C@H](NC(=O)c1ccc(CCc2ccc(C3CCCCC3)cc2)cc1-c1ccccc1C)C(=O)[O-].[Li+] [Example 461] | 93
55 | CSCC[C@H](NC(=O)c1ccc(CCc2ccc(Oc3ccccc3)cc2)cc1-c1ccccc1C)C(=O)[O-].[Li+] [Example 462] | 91

Source: patent publication US6310095A, “Inhibitors of protein isoprenyl transferases” (University of Pittsburgh, priority 1998, dated 2001)
